Measured values taken from patent US20240261274A1, “TREATMENT OF MYC-DRIVEN CANCERS WITH GSPT1 DEGRADERS” (MONTE ROSA THERAPEUTICS, INC., priority 2021, published 2024).

How the values were obtained:
Type in all cases: cell-based
Conditions in all cases: MM1 S cells, 0.3, 3 and 30 μM, 6 hours
ZFP91 = target: T1, ZFP91 (Homo sapiens, UniProt Q96JP5+Q96SW2); assay: Selectivity western blot assay in MM1 S cells, ZFP91; design: key: A represents no degradation observed at 30 μM; B represents trace degradation at 30 μM (below 20%); C represents weak degradation at 30 μM (below 50%); D represents degradation at 30 μM (>90%); E represents degradation at 3 μM (>90%); F represents degradation at 0.3 μM (>90%)
T1 construct: endogenous in cells; host or cells: MM1 S (ATCC CRL-2974)
T1 sequence (Q96JP5 whole entry): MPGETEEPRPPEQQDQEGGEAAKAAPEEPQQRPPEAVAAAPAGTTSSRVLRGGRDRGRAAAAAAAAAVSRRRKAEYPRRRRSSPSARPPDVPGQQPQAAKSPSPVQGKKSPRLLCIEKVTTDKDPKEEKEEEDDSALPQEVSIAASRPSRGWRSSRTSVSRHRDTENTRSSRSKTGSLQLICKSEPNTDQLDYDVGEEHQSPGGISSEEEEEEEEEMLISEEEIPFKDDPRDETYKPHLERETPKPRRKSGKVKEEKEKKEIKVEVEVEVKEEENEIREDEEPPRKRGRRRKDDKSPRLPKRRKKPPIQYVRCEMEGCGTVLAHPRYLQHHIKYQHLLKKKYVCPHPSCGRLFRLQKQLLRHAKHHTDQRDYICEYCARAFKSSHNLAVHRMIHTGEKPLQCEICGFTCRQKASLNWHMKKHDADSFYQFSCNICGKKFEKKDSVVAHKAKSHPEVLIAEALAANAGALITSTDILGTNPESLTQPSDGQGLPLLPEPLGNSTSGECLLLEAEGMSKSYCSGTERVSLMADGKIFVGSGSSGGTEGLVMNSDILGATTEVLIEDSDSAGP
T1 sequence (Q96SW2 whole entry): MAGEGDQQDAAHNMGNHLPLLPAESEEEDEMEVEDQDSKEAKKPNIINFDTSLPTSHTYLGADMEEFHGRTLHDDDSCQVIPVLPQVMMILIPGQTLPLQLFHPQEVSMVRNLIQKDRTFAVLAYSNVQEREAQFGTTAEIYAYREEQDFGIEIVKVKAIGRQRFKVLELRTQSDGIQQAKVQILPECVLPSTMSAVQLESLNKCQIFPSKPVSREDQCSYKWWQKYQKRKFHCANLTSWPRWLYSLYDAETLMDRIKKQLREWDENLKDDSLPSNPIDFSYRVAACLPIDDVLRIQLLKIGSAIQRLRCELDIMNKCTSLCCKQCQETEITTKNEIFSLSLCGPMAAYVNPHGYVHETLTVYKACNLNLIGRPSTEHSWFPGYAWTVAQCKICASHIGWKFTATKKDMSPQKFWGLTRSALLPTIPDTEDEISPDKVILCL
T1 sequence (Q16531 whole entry partner): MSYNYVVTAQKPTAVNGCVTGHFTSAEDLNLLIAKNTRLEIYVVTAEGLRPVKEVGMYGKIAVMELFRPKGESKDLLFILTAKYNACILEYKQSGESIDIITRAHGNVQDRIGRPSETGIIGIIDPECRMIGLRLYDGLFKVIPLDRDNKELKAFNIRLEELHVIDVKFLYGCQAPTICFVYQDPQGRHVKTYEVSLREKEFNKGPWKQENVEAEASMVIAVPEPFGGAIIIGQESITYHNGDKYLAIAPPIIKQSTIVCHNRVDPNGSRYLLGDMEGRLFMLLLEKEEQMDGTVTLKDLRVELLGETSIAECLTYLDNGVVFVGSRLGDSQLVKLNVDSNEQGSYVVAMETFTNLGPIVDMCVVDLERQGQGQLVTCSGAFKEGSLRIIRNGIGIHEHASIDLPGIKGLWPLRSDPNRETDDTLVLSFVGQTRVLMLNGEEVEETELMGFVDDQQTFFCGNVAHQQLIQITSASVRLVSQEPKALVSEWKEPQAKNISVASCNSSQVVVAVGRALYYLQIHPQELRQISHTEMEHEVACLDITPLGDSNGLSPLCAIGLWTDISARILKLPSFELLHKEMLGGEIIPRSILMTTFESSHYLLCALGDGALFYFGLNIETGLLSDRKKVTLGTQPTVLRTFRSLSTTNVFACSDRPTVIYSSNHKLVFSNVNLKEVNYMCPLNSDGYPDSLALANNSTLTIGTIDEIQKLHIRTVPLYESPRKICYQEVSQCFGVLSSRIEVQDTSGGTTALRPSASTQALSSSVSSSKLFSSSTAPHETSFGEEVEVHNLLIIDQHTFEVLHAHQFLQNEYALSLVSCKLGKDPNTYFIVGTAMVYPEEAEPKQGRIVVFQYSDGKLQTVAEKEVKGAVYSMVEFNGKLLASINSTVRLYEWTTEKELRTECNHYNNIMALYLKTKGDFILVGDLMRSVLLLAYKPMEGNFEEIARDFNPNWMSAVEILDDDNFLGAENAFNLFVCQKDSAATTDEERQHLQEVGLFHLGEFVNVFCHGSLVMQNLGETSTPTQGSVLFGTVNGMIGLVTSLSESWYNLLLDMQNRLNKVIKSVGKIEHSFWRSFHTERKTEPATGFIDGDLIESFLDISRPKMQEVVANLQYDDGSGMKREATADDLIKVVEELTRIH
Protocol: (§1) MM1 S cells were purchased from ATCC (cat. Number CRL-2974), sub-cultured in 90% RPMI 1640 with 10% FBS, supplemented with 1×P/S and incubated at 37° C., 5% CO2. Compounds were stored as 10 mM DMSO stock. For the assay, MM1 S cells (3 million cells/well) were plated in 6-well plates and incubated over night. Cells were treated with respective compounds using a serial dilution: 0.3 μM, 3 μM and 30 μM as well as a vehicle only (DMSO) control for 6 hours. Media with suspension cells was subsequently transferred to 15 mL conical tubes, wells rinsed twice with ice-cold PBS and merged with cell suspension in respective 15 mL conical tube. Cells were spinned down, supernatant aspirated, pellets resuspended in ice-cold PBS and transferred to microtubes. Cells were spinned down, supernatant aspirated and pellets resuspended in 120 μL RIPA lysis buffer supplemented with protease and phosphatase inhibitors. Cell lysates were incubated on ice for 20 minutes followed by centrifugation at >20,000×g for 5 min. Supernatants were transferred to fresh microtubes and stored at −80° C. Total protein concentration was determined using a BCA assay with a BSA standard curve and concentration of all samples was adjusted to 1 mg/mL. 25 μL 4×LDS sample buffer supplemented with 100 mM DTT was added to 75 μL sample. Samples were centrifuged (8,000×g, 1 min) and incubated at 95° C. for 5 min followed by another centrifugation step (8,000×g, 1 min). 20 μL of each sample was loaded on a 4-12% gel alongside a protein molecular weight marker. Gels were run in the presence of MOPS buffer at 80 Volts for 30 min, followed by 120 Volts for 1.5 h and proteins subsequently transferred onto nitrocellulose membranes at 20 Volts for 7 min using an iBlot2 Gel Transfer Device. Membranes were then cut horizontally into two pieces, covering 80-50 kDa and 50-25 kDa. Blocking the membranes was performed by gently shaking in 5% (w/v) skim milk in TSB-T for 1 hr at room temperature. All primary antibodies were used at a 1/1000 in 5% (w/v) BSA dissolved in TBST and incubated with membranes over night at 4° C. After three washes with 1×TBST for 5 min, HRP-coupled secondary antibodies diluted in 5% (w/v) BSA/TBST (Goat Anti-Rb IgG, dil. 1/10,000; Goat Anti-Mouse IgG, dil. 1/5000) were added for 1 hr at room temperature. After three washes with 1×TBST (5 minutes each), membranes were incubated with ECL reagent for 1 min at room temperature. Chemiluminescence signals were then detected using a LAS-4000 system with default settings and signals quantified using Image Studio Lite software (version 5.2). Membrane parts previously incubated with antibody against CK1 alpha were stripped off antibodies by incubating with stripping buffer for 30 minutes followed by three washed with TBST (5 min each), blocking with 5% (w/v) skim milk for 1 hr, and incubation with primary antibody against uGAPDH overnight at 4° C. Subsequent washes, incubation with secondary antibody and signal acquisition were performed as described above.

GSPT1 = GSPT1 (Homo sapiens, UniProt P15170+Q96SW2); assay: Selectivity western blot assay in MM1 S cells, GSPT1; design: endogenous in cells; host or cells: MM1 S (ATCC CRL-2974)
Chain of GSPT1 (P15170 whole entry): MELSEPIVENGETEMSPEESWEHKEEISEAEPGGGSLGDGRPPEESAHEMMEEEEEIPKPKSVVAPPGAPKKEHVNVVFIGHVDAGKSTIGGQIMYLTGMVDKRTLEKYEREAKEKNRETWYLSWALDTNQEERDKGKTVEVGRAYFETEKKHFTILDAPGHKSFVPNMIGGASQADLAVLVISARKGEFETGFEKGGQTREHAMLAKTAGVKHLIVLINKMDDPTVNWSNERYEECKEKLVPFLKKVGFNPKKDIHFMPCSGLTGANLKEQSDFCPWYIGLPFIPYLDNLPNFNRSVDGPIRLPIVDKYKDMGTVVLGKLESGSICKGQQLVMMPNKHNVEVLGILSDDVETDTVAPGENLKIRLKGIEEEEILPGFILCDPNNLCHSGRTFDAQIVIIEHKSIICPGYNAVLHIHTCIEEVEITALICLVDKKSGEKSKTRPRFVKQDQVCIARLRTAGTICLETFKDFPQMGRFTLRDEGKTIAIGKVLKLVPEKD
Chain of GSPT1 (Q96SW2 whole entry): as the sequence (Q96SW2 whole entry) above
Chain of GSPT1 (Q16531 whole entry partner): as the sequence (Q16531 whole entry partner) above
Protocol: as §1

IKZF3 = target: T2, IKZF3 (Homo sapiens, UniProt Q96SW2+Q9UKT9); assay: Selectivity western blot assay in MM1 S cells, IKZF3; design: key: A represents no degradation observed at 30 μM; B represents trace degradation at 30 μM (below 20%); C represents weak degradation at 30 μM (below 50%); D represents degradation at 30 μM (>90%); E represents degradation at 3 μM (>90%); F represents degradation at 0.3 μM (>90%)
T2 construct: endogenous in cells; host or cells: MM1 S (ATCC CRL-2974)
T2 sequence (Q9UKT9 whole entry): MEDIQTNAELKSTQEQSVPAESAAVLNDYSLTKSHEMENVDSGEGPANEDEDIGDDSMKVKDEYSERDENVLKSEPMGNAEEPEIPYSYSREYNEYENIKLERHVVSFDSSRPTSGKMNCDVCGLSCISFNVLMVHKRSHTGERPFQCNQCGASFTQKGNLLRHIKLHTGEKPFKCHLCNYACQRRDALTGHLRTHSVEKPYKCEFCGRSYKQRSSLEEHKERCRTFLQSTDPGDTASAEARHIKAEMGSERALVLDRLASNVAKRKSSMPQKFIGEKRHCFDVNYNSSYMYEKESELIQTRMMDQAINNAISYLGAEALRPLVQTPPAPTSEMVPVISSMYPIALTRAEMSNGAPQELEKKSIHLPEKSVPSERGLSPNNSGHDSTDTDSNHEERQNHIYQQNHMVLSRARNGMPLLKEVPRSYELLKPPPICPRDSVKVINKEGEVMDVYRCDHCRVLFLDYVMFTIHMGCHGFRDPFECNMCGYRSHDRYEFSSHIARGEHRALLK
T2 sequence (Q96SW2 whole entry): as the sequence (Q96SW2 whole entry) above
T2 sequence (Q16531 whole entry partner): as the sequence (Q16531 whole entry partner) above
Protocol: as §1

CK1alpha = target: T3, CK1alpha (Homo sapiens, UniProt P48729+Q96SW2); assay: Selectivity western blot assay in MM1 S cells, CK1alpha; design: key: A represents no degradation observed at 30 μM; B represents trace degradation at 30 μM (below 20%); C represents weak degradation at 30 μM (below 50%); D represents degradation at 30 μM (>90%); E represents degradation at 3 μM (>90%); F represents degradation at 0.3 μM (>90%)
T3 construct: endogenous in cells; host or cells: MM1 S (ATCC CRL-2974)
T3 sequence (P48729 whole entry): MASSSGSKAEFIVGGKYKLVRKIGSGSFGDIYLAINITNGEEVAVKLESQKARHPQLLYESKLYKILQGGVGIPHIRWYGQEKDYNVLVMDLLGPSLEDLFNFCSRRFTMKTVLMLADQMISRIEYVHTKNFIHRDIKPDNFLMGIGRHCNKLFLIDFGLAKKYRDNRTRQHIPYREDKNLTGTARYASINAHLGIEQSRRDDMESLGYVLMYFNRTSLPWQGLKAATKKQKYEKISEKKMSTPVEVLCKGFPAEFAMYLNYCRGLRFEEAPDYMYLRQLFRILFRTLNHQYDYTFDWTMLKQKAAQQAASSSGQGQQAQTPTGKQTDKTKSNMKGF
T3 sequence (Q96SW2 whole entry): as the sequence (Q96SW2 whole entry) above
T3 sequence (Q16531 whole entry partner): as the sequence (Q16531 whole entry partner) above
Protocol: as §1

IKZF1 = target: T4, IKZF1 (Homo sapiens, UniProt Q13422+Q96SW2); assay: Selectivity western blot assay in MM1 S cells, IKZF1; design: key: A represents no degradation observed at 30 μM; B represents trace degradation at 30 μM (below 20%); C represents weak degradation at 30 μM (below 50%); D represents degradation at 30 μM (>90%); E represents degradation at 3 μM (>90%); F represents degradation at 0.3 μM (>90%)
T4 construct: endogenous in cells; host or cells: MM1 S (ATCC CRL-2974)
T4 sequence (Q13422 whole entry): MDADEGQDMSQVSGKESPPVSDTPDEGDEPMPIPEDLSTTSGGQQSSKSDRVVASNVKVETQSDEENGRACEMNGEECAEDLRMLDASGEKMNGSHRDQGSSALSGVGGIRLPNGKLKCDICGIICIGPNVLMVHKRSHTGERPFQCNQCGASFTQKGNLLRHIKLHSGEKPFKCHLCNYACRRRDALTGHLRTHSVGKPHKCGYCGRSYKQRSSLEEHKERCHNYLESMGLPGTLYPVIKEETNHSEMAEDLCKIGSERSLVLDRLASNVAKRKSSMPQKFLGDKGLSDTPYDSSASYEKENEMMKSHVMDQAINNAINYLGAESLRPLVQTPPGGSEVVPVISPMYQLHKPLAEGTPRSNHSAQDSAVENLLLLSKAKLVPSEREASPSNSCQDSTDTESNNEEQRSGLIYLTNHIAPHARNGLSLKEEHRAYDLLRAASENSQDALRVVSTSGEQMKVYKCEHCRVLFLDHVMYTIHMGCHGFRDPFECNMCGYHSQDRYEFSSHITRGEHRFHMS
T4 sequence (Q96SW2 whole entry): as the sequence (Q96SW2 whole entry) above
T4 sequence (Q16531 whole entry partner): as the sequence (Q16531 whole entry partner) above
Protocol: as §1

| SMILES | ZFP91 degradation (ZFP91) | GSPT1 degradation (GSPT1) | IKZF3 degradation (IKZF3) | CK1alpha degradation (CK1alpha) | IKZF1 degradation (IKZF1) |
| --- | --- | --- | --- | --- | --- |
| Cc1c(Cl)cc(NC(=O)NCc2ccc3c(c2)C(=O)N(C2CCC(=O)NC2=O)C3)cc1CN(C)C (centres unmarked) [Compound 75] | A | E (E represents degradation at 3 μM (>90%)) | A | A | A |
| Cc1c(Cl)cc(NC(=O)NCc2ccc3c(c2)C(=O)N(C2CCC(=O)NC2=O)C3)cc1CN1CCOCC1 (centres unmarked) [Compound 82] | A | F (F represents degradation at 0.3 μM (>90%)) | A | A | A |
| Cc1cc(C)c(NC(=O)NCc2ccc3c(c2)C(=O)N(C2CCC(=O)NC2=O)C3)cc1Cl (centres unmarked) [Compound 85] | A | E (E represents degradation at 3 μM (>90%)) | A | B (B represents trace degradation at 30 μM (below 20%)) | A |
| Cc1ccc(NC(=O)NCc2ccc3c(c2)C(=O)N(C2CCC(=O)NC2=O)C3)c(Cl)c1Cl (centres unmarked) [Compound 87] | A | E (E represents degradation at 3 μM (>90%)) | A | A | A |
| O=C1CCC(N2Cc3ccc(CNC(=O)Nc4cccc(CN5CCOCC5)c4)cc3C2=O)C(=O)N1 (centres unmarked) [Compound 105] | B (B represents trace degradation at 30 μM (below 20%)) | E (E represents degradation at 3 μM (>90%)) | A | A | B (B represents trace degradation at 30 μM (below 20%)) |
| Cc1c(Cl)cc(NC(=O)NCc2ccc3c(c2)C(=O)N(C2CCC(=O)NC2=O)C3)cc1CC1COCOC1 (centres unmarked) [Compound 132] | C (C represents weak degradation at 30 μM (below 50%)) | F (F represents degradation at 0.3 μM (>90%)) | A | C (C represents weak degradation at 30 μM (below 50%)) | A |
| COc1cc(C)c(Cl)cc1NC(=O)OCc1ccc2c(c1)C(=O)N(C1CCC(=O)NC1=O)C2 (centres unmarked) [Compound 201] | A | F (F represents degradation at 0.3 μM (>90%)) | B (B represents trace degradation at 30 μM (below 20%)) | B (B represents trace degradation at 30 μM (below 20%)) | A |
| Cc1ncc(NC(=O)OCc2ccc3c(c2)C(=O)N(C2CCC(=O)NC2=O)C3)cc1Cl (centres unmarked) [Compound 206] | – | F (F represents degradation at 0.3 μM (>90%)) | B (B represents trace degradation at 30 μM (below 20%)) | A | A |
| O=C1CCC(N2Cc3ccc(COC(=O)Nc4ccc(N5CCCCC5)nc4)cc3C2=O)C(=O)N1 (centres unmarked) [Compound 215] | – | F (F represents degradation at 0.3 μM (>90%)) | B (B represents trace degradation at 30 μM (below 20%)) | C (C represents weak degradation at 30 μM (below 50%)) | A |
| O=C1CCC(N2Cc3ccc(COC(=O)Nc4ccc(-c5ccccc5)nc4)cc3C2=O)C(=O)N1 (centres unmarked) [Compound 242] | – | F (F represents degradation at 0.3 μM (>90%)) | A | B (B represents trace degradation at 30 μM (below 20%)) | A |
| CC(C)(C)c1ccc(NC(=O)OCc2ccc3c(c2)C(=O)N(C2CCC(=O)NC2=O)C3)cn1 (centres unmarked) [Compound 243] | – | F (F represents degradation at 0.3 μM (>90%)) | B (B represents trace degradation at 30 μM (below 20%)) | C (C represents weak degradation at 30 μM (below 50%)) | A |
| CC(C)(C)c1ccc(NC(=O)OCc2ccc3c(c2)C(=O)N(C2CCC(=O)NC2=O)C3)cc1 (centres unmarked) [Compound 247] | B (B represents trace degradation at 30 μM (below 20%)) | F (F represents degradation at 0.3 μM (>90%)) | A | B (B represents trace degradation at 30 μM (below 20%)) | A |
| Cc1c(Cl)cc(NC(=O)OCc2ccc3c(c2)C(=O)N(C2CCC(=O)NC2=O)C3)cc1OCCN1CCOCC1 (centres unmarked) [Compound 248] | – | F (F represents degradation at 0.3 μM (>90%)) | B (B represents trace degradation at 30 μM (below 20%)) | B (B represents trace degradation at 30 μM (below 20%)) | A |
| CCc1ncc(NC(=O)OCc2ccc3c(c2)C(=O)N(C2CCC(=O)NC2=O)C3)cc1C (centres unmarked) [Compound 249] | B (B represents trace degradation at 30 μM (below 20%)) | F (F represents degradation at 0.3 μM (>90%)) | A | B (B represents trace degradation at 30 μM (below 20%)) | A |
